Measurements: patent US12653860B2, “Compositions and methods for editing beta-globin for treatment of hemaglobinopathies” (Vertex Pharmaceuticals Incorporated, priority 2019, dated 2026)
Strand notation (5' to 3'): a small letter for the sugar, then the base; units joined by * are phosphorothioate-linked, units joined directly phosphodiester-linked; [ ] holds rarer units or linkages, { } end groups; capitals alone tell only the bases. m = 2'-O-methyl; r = 2'-OH (RNA)

What was measured:
[1] = system: BFP gene encoded in the AAVS1 locus of HEK293 T cells; assay: BFP to GFP reporter assay of HDR repair (flow cytometry); assay type: cell-based; settings: different concentrations or doses; FIG. 1B, 1C
Experimental: An in vitro assay was conducted to determine the ability of various inhibitors and enhancers to improve the efficiency of HDR repair in HEK293 T cells. Specifically, a fluorescent reporter-based screening approach was developed to identify molecules that enhance gene-editing by HDR. A reporter system was generated in HEK293 T cells comprising a genomic AAVS1 locus that encoded either a blue fluorescent protein (BFP) or a green fluorescent protein (GFP) within the AAVS1 locus. A gene encoding BFP can be converted to a gene encoding GFP by substitution of cytosine at position 199 to uridine (e.g., a C to U transition at position 199). By introducing a DSB within the BFP gene using a CRISPR/Cas9 gene-editing system, a homology donor DNA encoding the nucleotide substitution can be used to edit the BFP gene to a GFP gene by HDR repair. Thus, a gene edit that induces a C to U transition at position 199 results in a change in cellular fluorescence. A change in the fluorescence of the cell measured by flow cytometry can be used to quantify efficiency of HDR repair. Additionally, the reverse gene edit can be performed for an AAVS1 locus encoding a GFP gene, wherein a GFP can be converted to BFP by substitution of uridine at position 199 to cytosine.
To create the reporter system, an AAV-based homology donor DNA encoding either BFP or GFP was created. The AAV-BFP or AAV-GFP donor was flanked by homology arms that were 1000 base pairs in length and expression of BFP or GFP was driven by the MND promoter (e.g., a synthetic promoter that contains the U3 region of a modified Moloney murine leukemia virus long term terminal repeat with myeloproliferative sarcoma virus enhancer and deleted negative control region, SEQ ID NO: 58). The viral DNA was packaged into capsids of adeno-associated virus serotype 6 (AAV6) vector. Either the BFP or GFP donor was introduced using the AAV6 vector into the AAVS1 locus in HEK293 T cells by homologous recombination using CRISPR-Cas9 as follows: purified Cas9 protein was complexed with two different single gRNAs (sgRNAs) targeting the AAVS1 locus at SEQ ID NO: 3 (spacer sequence identified by SEQ ID NO: 4; gRNA obtained from Maxcyte) or SEQ ID NO: 5 (spacer sequence identified by SEQ ID NO: 6; gRNA obtained from Thermo Fisher). Cas9 protein used in the Exemplary section provided herein refers to Cas9 polypeptide derived from S pyogenes (SpCas9), unless indicated otherwise.
The Cas9-sgRNA complex was electroporated into the HEK293 T cells using the Lonza Nucleofector program CM-130. Approximately, 2 hours after electroporation, the cells were infected with various viral doses of AAV6 encoding a BFP (SEQ ID NO: 44) or GFP homology donor (SEQ ID NO: 47). One week later, cells were analyzed by flow cytometry to verify integration and expression of BFP or GFP in the AAVS1 locus. HEK293 T cells expressing BFP or GFP were sorted into single cells in 96-well plates. After −2 weeks of growth, DNA extracted from individual cells was analyzed for precise integration of the respective BFP or GFP gene into the AAVS1 locus by long-range PCR. This PCR analysis allowed for determination of whether the BFP/GFP gene was integrated in one or both alleles of the AAVS1 locus.
To introduce a gene edit that converts BFP to GFP, cells were electroporated with ribonucleoprotein (RNP) comprised of Cas9 and sgRNA that targets the BFP gene encoded in the AAVS1 locus. The sgRNA targeted a sequence in the BFP gene identified by SEQ ID NO: 7 (sgRNA spacer sequence identified by SEQ ID NO: 8). The sgRNA were prepared using a standard sgRNA cassette specific to SpCas9, as indicated by SEQ ID NO: 2 (wherein a, c, g, u represent 2′ O-methyl phosphorothioate nucleotides; s represents phosphorothioate nucleotides; and A, C, G, U, N represent canonical RNA nucleotides). The gRNAs used in the Exemplary section provided herein were sgRNAs prepared with the SpCas9 sgRNA cassette unless indicated otherwise. […]

[2] = system: HBB locus in CD34-expressing LT-HSPCs; assay: HDR insertion of AAV GFP donor at HBB locus (GFP fluorescence); assay type: cell-based, human; settings: i53 mRNA 0.5, 1, 2 g (FIG. 6A) or 0.3 g, 1 g (FIG. 6B); CYREN1 or CYREN2 mRNA; any dose of XL413 (data not shown)
Experimental: Frozen CD34-expressing LT-HSPCs derived from plerixafor (i.e., Mozibil®)+GCSF-dual mobilized peripheral blood obtained from healthy human donors were purchased from a commercial vendor. LT-HSPCs were maintained in culture media comprised of the reagents shown in Table 4 and were incubated at 37° C., 5% carbon dioxide, 4% oxygen. […] 2×10^5 cells were edited with 3 g Cas9 and 3 g gRNA. The target gene sequence (including target sequence with PAM), R02 spacer sequence, and R02 sgRNA sequence are identified in Table 3.
The cells were transfected with a dsDNA homology donor encoding GFP under a SFFV promoter (SEQ ID NO: 60) that was delivered by AAV (SEQ ID NO: 56). […] The HDR efficiency was determined by measuring the level of GFP fluorescence in the cells following electroporation. To determine the effect of 53BP1 inhibition on HDR efficiency, the 53BP1 inhibitor i53 was introduced as an mRNA-encoded protein to the cells during electroporation with Cas9/gRNA RNP and AAV DNA that serves as a donor for homology directed repair.
The effect of 53BP1 inhibition on HDR efficiency was compared to other mRNA-encoded proteins that inhibit the NHEJ pathway. These included the proteins CYREN1 and CYREN2 that inhibit Ku70/80, a heterodimer that binds DNA blunt ends to prevent processing of 3′ single-stranded DNA tails necessary for HDR repair. Cells were electroporated with RNP, an AAV-GFP homology donor and mRNA encoding either i53 (mRNA ORF shown in SEQ ID NO: 69), CYREN1, or CYREN2.
The effect of treatment with i53 and Nu7441 was compared for improving efficiency of HDR repair of the HBB locus. Cells were treated with different doses of Nu7441 or with mRNA encoding i53 (ORF shown by SEQ ID NO: 69).

[3] = system: HBB gene locus in CD34-expressing LT-HSPCs; assay: INDEL frequency and species at R02 cut site with DNA-PK inhibitors, NGS; assay type: cell-based, human
Experimental: (§1) Editing was performed as described above. However, the cells were electroporated with AAV.307 administered 1 hour prior to electroporation at a dose of 10,000 MOI. The cells were electroporated with compound 296 at a concentration ranging from 0.005 μM to 10 μM, with compound 984 at a concentration ranging from 0.005 μM to […], or with 1 μg i53 mRNA. Negative control cells were electroporated with RNP+AAV only or RNP only.
(§2) Edited cells were evaluated for viability as described above, and for incorporation of gene-edits at 2 days post-electroporation. […] The frequency of INDELs induced at the R02 cut site was also evaluated by NGS analysis.
The INDELs species identified for cells edited in Experiment 2 were further evaluated to determine frequency of repair by NHEJ or MMEJ repair pathways. An INDEL of 1 nt was considered due to NHEJ repair; a deletion of −9 nt was considered due to MMEJ repair based on the microhomology present on either side of the R02 cut site. Based on percentage of total reads corresponding to these INDEL species, the ratio of gene edits due to NHEJ and MMEJ repair was evaluated.

CD34-expressing LT-HSPCs = assay: Viability of edited LT-HSPCs by Tryphan Blue staining; assay type: cell-based, human
Experimental: (§3) Edited cells were evaluated for GFP fluorescence on day 2 post-editing using flow cytometry, and viability was determined via staining with Tryphan Blue.
as §2

[4] = molecular target: DNA-PK catalytic subunit (DNA-PKcs) (Homo sapiens, UniProt P78527); settings: reported, U.S. Pat. No. 9,592,232; cited from earlier work
[5] = system: HBB gene locus in CD34-expressing LT-HSPCs; assay: HDR insertion of GFP donor at HBB gene locus with DNA-PK inhibitor (percentage of cells expressing GFP); assay type: cell-based, human; settings: for level of HDR repair (cells expressing GFP): day 2 post-editing, FIG. 37A
Experimental: The effect of DNA-PK inhibition using Compound 296 was compared to the effect of 53BP1 inhibition using i53 for increased HDR repair of the HBB gene locus with donor DNA encoding GFP.
The efficiency of HDR for repair of the HBB gene with donor encoding GFP was determined by measuring the percentage of cells expressing GFP following electroporation.
as §3

[6] = system: HBB gene locus in CD34-expressing LT-HSPCs; assay: HDR efficiency at HBB gene with R02 RNP+AAV.307 and DNA-PK inhibitors, NGS; assay type: cell-based, human
Experimental: as §1, §2

genomic DNA = assay: GUIDE-Seq screen of candidate off-target sites; assay type: cell-based
Excerpt: The second approach was to screen candidate off-target sites using GUIDE-Seq (see, e.g., Tsai et al (2015) NAT BIOTECHNOL. 33:187). Based on this approach, 36 sites in the genomic DNA were identified as undergoing off-target CRISPR/Cas9 cleavage using the R02 gRNA.

**Q.** With `CCCCCCNC(=O)Nc1ccc(S(=O)(=O)Nc2ccc(CCNC[C@H](O)COc3ccc(O)cc3)cc2)cc1` [L755,507] as the molecule, how does the “HDR efficiency (improvement)” value [1] read?
**A.** no improvement in HDR efficiency

**Q.** With `Cl.O=c1[nH]c([C@@H]2CCCN2)nc2c1oc1ccc(Cl)cc12` [XL413] as the molecule, how does the “HDR efficiency vs RNP+AAV-only” value [2] read?
**A.** no improvement in HDR efficiency

**Q.** For `CNC(=O)c1ccnc2c([C@H](C)CNc3cc(-c4cnc(C)nc4)ncn3)cccc12` [Compound 296], which “frequency of INDELs, fold reduced compared to R02 RNP only” value ([3]; 0.37-10 μM) is on record?
**A.** at least 4.6 fold

**Q.** And the “INDEL species due to MMEJ repair (−9 nt deletion)” value ([3]; Experiment 2, FIG. 38D)?
**A.** only a modest reduction

**Q.** What about the “fold decrease in INDELs due to NHEJ repair (INDEL of 1 nt)” value ([3]; Experiment 2, FIG. 38D) of the same molecule?
**A.** ≤ 30 fold

**Q.** And the “viability of edited cells” value (CD34-expressing LT-HSPCs; AAV.307, each concentration used, Experiment 2, FIG. 38C)?
**A.** > 80%

**Q.** And the “viability of edited cells” value (CD34-expressing LT-HSPCs; GFP donor, each concentration evaluated (0.014 μM to 10 μM), FIG. 37A)?
**A.** > 80%

**Q.** And the “affinity and selectivity for DNA-PK” value [4]?
**A.** high affinity and selectivity

**Q.** And the “level of HDR repair vs i53 mRNA” value ([5]; 1.1 μM, 3.3 μM, or 10 μM, FIG. 37B)?
**A.** comparable to cells edited with i53 mRNA

**Q.** And the “level of HDR repair (cells expressing GFP)” value ([5]; 1.1 μM)?
**A.** 53.5%

**Q.** And the “level of HDR repair (cells expressing GFP)” value ([5]; 3.3 μM)?
**A.** 56.5%

**Q.** What about the “level of HDR repair (cells expressing GFP)” value ([5]; 10 μM) of the same molecule?
**A.** 55.9%

**Q.** What about the HDR efficiency ([6]; 3.3 μM, R02 RNP+AAV.307) of the same molecule?
**A.** 80%

**Q.** And the “HDR efficiency, fold higher than R02 RNP+AAV only” value ([6]; 0.37-10 μM)?
**A.** at least 1.6 fold

**Q.** What about the “level of HDR repair” value ([6]; 0.37-10 M, R02 RNP+AAV.307, FIGS. 38A-38B) of the same molecule?
**A.** ≥ 70%

**Q.** With `[2H]c1nc(C)nc([2H])c1-c1cc(NC[C@@H](C)c2cccc3c(C(=O)NC)ccnc23)ncn1` [Compound 984] as the molecule, how does the “frequency of INDELs, fold reduced compared to R02 RNP only” value ([3]; 3.3 μM or 10 μM, FIGS. 39A-39B) read?
**A.** approximately 8 fold

**Q.** What about the viability following editing (CD34-expressing LT-HSPCs; particularly at minimal effective concentrations) of the same molecule?
**A.** good viability

**Q.** What about the “affinity and selectivity for DNA-PK” value [4] of the same molecule?
**A.** high affinity and selectivity

**Q.** And the HDR efficiency ([6]; 3.3 μM or 10 μM, R02 RNP+AAV.307, FIGS. 39A-39B)?
**A.** > 80%

**Q.** And the “level of HDR repair” value ([6]; 0.37-10 μM, FIGS. 39A-39B)?
**A.** high

**Q.** For `C[C@]1(c2nc3c(C(N)=O)cccc3[nH]2)CCCN1` [Veliparib], which “HDR efficiency (improvement)” value [1] is on record?
**A.** no improvement in HDR efficiency

B1: R02 gRNA: sgRNA targeting the HBB locus, SEQ ID NO: 17 (spacer SEQ ID NO: 16) (nucleic acid)
guide: mC*mU*mU*rGrCrCrCrCrArCrArGrGrGrCrArGrUrArArGrUrUrUrUrArGrArGrCrUrArGrArArArUrArGrCrArArGrUrUrArArArArUrArArGrGrCrUrArGrUrCrCrGrUrUrArUrCrArArCrUrUrGrArArArArArGrUrGrGrCrArCrCrGrArGrUrCrGrGrUrGrCmU*mU*mU*rU
**Q.** Which “number of genomic sites identified as undergoing off-target CRISPR/Cas9 cleavage” value (genomic DNA) does the source give for B1 here?
**A.** 36
